Results taken from US4486429A, “Amino derivatives of 4-phenyl 4-oxobuten-2-oic acid, pharmaceutical compositions containing them, and methods for preparing and therapeutically using them” (Roussel Uclaf, priority 1981, dated 1984).

What was measured:
gastric secretions = assay: Determination of the anti-gastric secretion activity (Shay technique, pylorus ligation, rats); assay type: in vivo; conditions: pylorus ligated, dose 10 mg/kg, intraduodenal, 3 hours, total acidity of gastric juice
Experimental: (1) Determination of the anti-gastric secretion activity
The technique used is described by H. SHAY et al. in Gastroenterology 5, 43, 1945.
Male rats were used having a weight of about 200 g each (10 animals per lot), and kept without food for 48 hours but enjoying ad libitum 8% glucose solution. After the rats were slightly anesthetized with ether the pylorus of each was ligated. At the end of the operation, the product to be tested was administered intraduodenally in different doses or, for the control animals 0.5% carboxymethyl cellulose solution was administered, whereupon the abdominal incision is sutured.
Three hours later, the animals were sacrificed and their stomachs removed after ligating the esophagus. The gastric juice was removed and centrifuged. The volume of gastric juice obtained was then measured and the total acidity of the gastric juice was determined by titrating a […] of gastric juice to a pH of 7 by means of 1/10 N aqueous sodium hydroxide solution.
The percentages of variation in total acidity of the gastric secretions between control and test animals were calculated.

stomach ulcers = assay: Determination of the anti-ulcer activity (stress ulcer, rats); assay type: in vivo; conditions: female rats, stress and cold (8° C., two hours), dose 10 mg/kg by esophageal tube two hours before
Experimental: (2) Determination of the anti-ulcer activity
The technique consists in inducing stomach ulcers by stress in rats (stress and cold). The technique used is described by E. C. SENAY and R. J. LEVINE, Proc. Soc. Exp. Biol. 124, 1221 (1967).
Female rats weighing about 150 g (5 animals per lot) which have fasted for 48 hours with water ad libitum and glucose solution for 8 hours were used. By an esophageal tube, the animals were administered the test compound, or a solution of 0.5% carboxymethyl cellulose solution for the control animals. Two hours later, the animals were bundled in a jacket of netting. Their paws were bound and the entire unit was placed in a refrigerator at 8° C. for two hours. The rats were released and killed with ether.
Their stomachs were removed, opened along the greater curvature and examined by binocular magnifier. The seriousness of ulceration was clasified from 0 to 3 for each stomach.
For each lot of rats the average intensity of the ulcerations was calculated. The degree of ulceration for control and test animals was determined and the variation expressed in percentage.

[1] = Determination of the acute toxicity (LD50, oral, mice); conditions: mouse, in vivo, oral administration
Experimental: (3) Determination of the acute toxicity
The LD50 was evaluated after oral administration of the product to mice.

| Compound | Anti-secretion activity (% variation referred to the controls): Acid Concentration (gastric secretions) [%] | Anti-ulcer activity (% variation referred to the controls): Ulceration (stomach ulcers) [%] | LD50 [1] [mg/kg] |
| --- | --- | --- | --- |
| CCOC(=O)Nc1ccc(C(=O)/C=C/C(=O)O)cc1 [Example 1, (E) 4-(4-carbethoxyaminophenyl)-4-oxobuten-2-oic acid] | -55 | -41 | > 1000 |
| CN(C)c1ccc(C(=O)/C=C/C(=O)O)cc1 [Example 4, (E) 4-(4-N,N-dimethylaminophenyl) 4-oxobuten-2-oic acid] | -58 | -61 | 750 |
